Data published in US4201866A, “O-Hemi-succinate of propranolol” (American Home Products Corporation, priority 1977, dated 1980).
Where a name gives a salt, the structure may show the parent alone.

Experiment: Oral administration of the compound of Example 6; plasma levels (Example 7)
Format: in vivo
Settings: beagle dogs
Protocol: In this experiment, four beagle dogs were given an 80 mg. oral dose of propranolol HCl or an equivalent dose of the o-hemi-succinate. The animals were divided into two groups of two, each group receiving the drugs according to a crossover design. The crossover experiment was repeated twice. A period of at least one week elapsed between each dosing day. Blood samples were obtained at regular intervals after dosing a plasma was analyzed for free propranolol concentrations.
The compound of Example 6 was orally administered to beagle dogs in a similar manner as Example 2. Plasma levels of the compound of Example 6 were twice as high as those obtained after an equivalent dose of propranol hydrochloride.

In the case of `CCOC(=O)CCC(=O)OC(CNC(C)C)COc1cccc2ccccc12` (stereo not shown) [Example 6, Butanedioic acid-1-[(2-(1-methylethyl)amino] -1-[(1-naphtalenyloxy)methyl]diethylether hydrochloride], the “Plasma levels compared with equivalent dose of propranolol hydrochloride” value is reported as “twice as high”.
